According to patent US12064425B2, “Compositions and methods for targeting a viral infection” (priority 2018, dated 2024):
Entries after “also recorded” stand apart in the source; their conditions may differ. Like-named read-outs stand apart in the source and are kept apart here.

Columns and labels:
HIV-1 Env = HIV-1 Env (Human immunodeficiency virus type 1, UniProt Q71014)
HIV-1 Env pseudoviruses = type: cell-based
2F5 Fab = assay: SPR analysis of compound binding to 2F5 Fab
[1] = test system: gp41-inter binding to 240D Fab; set-up: species or system HIV-1
[2] = test system: gp41-inter binding to 2F5 Fab; set-up: species or system HIV-1
gp41-inter = gp41-inter (Human immunodeficiency virus type 1, UniProt Q71014); type: binding, HIV-1
[3] = molecular target: 92UG037.8 HIV-1 Env W666A (Human immunodeficiency virus type 1, UniProt Q71014, W659A); type: cell-based
[4] = test system: Env-expressing cells, CD4- and CCR5-expressing cells

## Cc1cc(N)c2ccccc2n1 [4-aminoquinaldine]
HIV-1 Env
  activity in blocking HIV-1 Env mediated cell-cell fusion (in words): no activity

## Nc1cc[n+](CCCCCCCCCC[n+]2ccc(N)c3ccccc32)c2ccccc12 [Compound S2C1]
HIV-1 Env
  inhibition potency in the cell-cell fusion assay compared to dequalinium: significant decreases in potency

## Nc1c2c([n+](CCCCCCCCCC[n+]3c4c(c(N)c5ccccc53)CCC4)c3ccccc13)CCC2 [Compound S2C3]
HIV-1 Env pseudoviruses
  potency of inhibition of viral infectivity compared to dequalinium: improvement in potency
HIV-1 Env
  inhibition potency in the cell-cell fusion assay compared to dequalinium: significant improvement
2F5 Fab
  binding to 2F5: no binding
[1]
  competition with 240D Fab for binding to gp41-inter: not with a cluster I antibody, 240D Fab
[2]
  competition with 2F5 for binding to gp41-inter: competed with 2F5 for binding to gp41-inter

## Nc1cc[n+](CCCCCCCCCC[n+]2ccc(N)c3cc(Br)ccc32)c2ccc(Br)cc12 [Compound S2C7]
HIV-1 Env
  inhibition potency in the cell-cell fusion assay compared to dequalinium: modestly improved potency

## Cc1cc(N)cc[n+]1CCCCCCCCCC[n+]1ccc(N)cc1C [Compound S2C9]
HIV-1 Env
  inhibition potency in the cell-cell fusion assay compared to dequalinium: significant decreases in potency

## c1ccc2c(c1)ccc[n+]2CCCCCCCCCC[n+]1cccc2ccccc21 [Compound S2C10]
gp41-inter
  binding to gp41-inter (in words): no binding
HIV-1 Env
  inhibition potency in the cell-cell fusion assay compared to dequalinium: significant decreases in potency

## Cc1cc(N)c2ccccc2[n+]1CCCCCCCCCC[n+]1c(C)cc(N)c2ccccc21 [dequalinium, quinolinium,1,1′-(1,10-decanediyl)-bis(4-amino-2-methyldiiodide)]
HIV-1 Env pseudoviruses
  inhibition of HIV-1 infectivity versus MuLV control: greater inhibition to several HIV-1 isolates
TZM.bl cells
  cytotoxicity in the viral infectivity assay: more cytotoxicity than in the cell-cell fusion assay
[3]
  resistance of mutant Env to inhibition of cell-cell fusion versus wildtype Env: significantly more resistant
HIV-1 Env
  inhibition of cell-cell fusion mediated by Envs of primary HIV-1 isolates of different clades: can also target Envs from multiple primary HIV-1 isolates of different clades; also recorded: specifically inhibited cell-cell fusion
2F5 Fab; SPR
  binding to 2F5: no binding
[4]
  cytotoxicity by an assay measuring ATP concentration: minimal level of cytotoxicity
